Reference: US20050005311A1, “High throughput screening for cancer genes” (priority 2003, published 2005)

Test system: l(2)gl primary tumor
Format: in vivo, Drosophila melanogaster
Method: Adult hosts injected with l(2)gl/l(2)gl larval tissue were orally administered drugs for 21 days after injection. Hosts were treated with 0 or 0.56 μg/ml of LY294002 (reduction of tumor size to 7% of untreated) and 0 or […] PD98059 (no effect).
Brain lobes from armadillo-lacZ marked larvae; were dissected and cut into halves. Each fragment was injected into the abdomen of a βgal^ml (a mutant that lacks endogenous […] expression) adult female using a 33 gauge needle, where it was cultured for 21 days at room temperature. Hosts that had received transplants were opened along the ventral midline and fixed in 3.7% formaldehyde in phosphate buffered saline (PBS). β-galactosidase in the donor tissue was detected by staining overnight at 37° C. in 0.02% X-gal in 10 mM Na pyrophosphate, 0.15 M NaCl, […], 5 mM ferricyanide, and 5 mM K ferrocyanide (Specialty Media). Secondary tumors were defined as β-galactosidase-marked cells distinct from the :implanted tumor, which was defined as the primary tumor.
The levels of Mothers against dpp (Mad), P13K, ERK, Akt, and cleaved caspase 3 were studied in brain extracts from l(2)gl/l(2)gl, l(2)gl/l(2)gl; sema-5c/sema-5c, and wild-type larvae. P13K was reduced in l(2)gl/l(2)gl;sema-5c/sema-5c compared to l(2)gl/l(2)gl. To further study the role of P13K in l(2)gl tumors, the P13K inhibitor, LY294002, was orally administered to Drosophila adults injected with l(2)gl/l(2)gl tissue.
Adult βgal^nl hosts transplanted with armadillo-lacZ marked l(2)gl brain fragments were treated with 0; 0.556; 5.56; and 55.6 μg/ml of the PI-3 K inhibitor, LY294002 (Sigma), by adding drug to fly media. Flies were cultured for 21 days on drug-containing food and stained for the presence of β-galactosidase. Primary tumor size was determined by counting the cells dissociated from tumors. See, e.g., FIG. 5.

Row | Structure (SMILES) | effect on l(2)gl primary tumor growth (adult hosts injected with l(2)gl/l(2)gl larval tissue, oral, 0.56 μ/ml, 21 days after injection (FIG. 5)) | primary tumor size (% of untreated) (adult hosts injected with l(2)gl/l(2)gl larval tissue, oral, 0.56 μg/ml, 21 days after injection (FIG. 5)) | adverse effects to the hosts (in vivo, po) | primary tumor size (orally administered to Drosophila adults injected with l(2)gl/l(2)gl tissue, dose not given)
1 | COc1cccc(-c2cc(=O)c3ccccc3o2)c1N [PD98059] | no effect | – | – | –
2 | O=c1cc(N2CCOCC2)oc2c(-c3ccccc3)cccc12 [LY294002] | – | 7 % of untreated | without adverse effects | 7 % of untreated hosts
